≈ marks a conversion by molar mass, not a printed value.
Assays:
Type in all cases: functional
Serratia marcescens [1] = assay: Antibacterial activity against Serratia marcescens by CLSI M7-A7 method
[2] = tested on: Stenotrophomonas maltophilia; assay: Antibacterial activity against non-levofloxacin susceptible Stenotrophomonas maltophilia by CLSI M7-A7 method
Acinetobacter lwoffii [3] = assay: Antibacterial activity against Acinetobacter lwoffii assessed as percent susceptible isolates by CLSI M7-A7 method
[4] = tested on: Acinetobacter calcoaceticus; assay: Antibacterial activity against Acinetobacter calcoaceticus assessed as percent susceptible isolates by CLSI M7-A7 method
Pseudomonas aeruginosa [5] = assay: Antibacterial activity against ciprofloxacin-susceptible Pseudomonas aeruginosa assessed as percent susceptible isolates by CLSI M7-A7 method
Klebsiella aerogenes [6] = assay: Antibacterial activity against Enterobacter aerogenes by CLSI M7-A7 method
Enterobacter cloacae [7] = assay: Antibacterial activity against Enterobacter cloacae assessed as percent susceptible isolates by CLSI M7-A7 method
Morganella morganii [8] = assay: Antibacterial activity against Morganella morganii by CLSI M7-A7 method
Citrobacter freundii [9] = assay: Antibacterial activity against Citrobacter freundii by CLSI M7-A7 method
Acinetobacter baumannii [10] = assay: Antibacterial activity against Acinetobacter baumannii assessed as percent susceptible isolates by CLSI M7-A7 method
[11] = tested on: Stenotrophomonas maltophilia; assay: Antibacterial activity against levofloxacin-susceptible Stenotrophomonas maltophilia by CLSI M7-A7 method
Proteus vulgaris [12] = assay: Antibacterial activity against Proteus vulgaris by CLSI M7-A7 method
Klebsiella oxytoca [13] = assay: Antibacterial activity against Klebsiella oxytoca by CLSI M7-A7 method
Pseudomonas aeruginosa [14] = assay: Antibacterial activity against non-ciprofloxacin-susceptible Pseudomonas aeruginosa by CLSI M7-A7 method
Klebsiella oxytoca [15] = assay: Antibacterial activity against Klebsiella oxytoca assessed as percent susceptible isolates by CLSI M7-A7 method
Morganella morganii [16] = assay: Antibacterial activity against Morganella morganii assessed as percent susceptible isolates by CLSI M7-A7 method
Serratia marcescens [17] = assay: Antibacterial activity against levofloxacin susceptible Serratia marcescens assessed as percent susceptible isolates by CLSI M7-A7 method
Citrobacter koseri [18] = assay: Antibacterial activity against Citrobacter koseri assessed as percent susceptible isolates by CLSI M7-A7 method
Enterobacter cloacae [19] = assay: Antibacterial activity against Enterobacter cloacae by CLSI M7-A7 method
Acinetobacter lwoffii [20] = assay: Antibacterial activity against Acinetobacter lwoffii by CLSI M7-A7 method
Citrobacter koseri [21] = assay: Antibacterial activity against Citrobacter koseri by CLSI M7-A7 method
Klebsiella aerogenes [22] = assay: Antibacterial activity against Enterobacter aerogenes assessed as percent susceptible isolates by CLSI M7-A7 method
Klebsiella pneumoniae [23] = assay: Antibacterial activity against Klebsiella pneumoniae by CLSI M7-A7 method
[24] = tested on: Acinetobacter calcoaceticus; assay: Antibacterial activity against Acinetobacter calcoaceticus by CLSI M7-A7 method
Proteus mirabilis [25] = assay: Antibacterial activity against Proteus mirabilis assessed as percent susceptible isolates by CLSI M7-A7 method
[26] = tested on: Stenotrophomonas maltophilia; assay: Antibacterial activity against levofloxacin-susceptible Stenotrophomonas maltophilia assessed as assessed as percent susceptible isolates by CLSI M7-A7 method
Proteus vulgaris [27] = assay: Antibacterial activity against Proteus vulgaris assessed as percent susceptible isolates by CLSI M7-A7 method
[28] = tested on: Stenotrophomonas maltophilia; assay: Antibacterial activity against non-levofloxacin susceptible Stenotrophomonas maltophilia assessed as percent susceptible isolates by CLSI M7-A7 method
Klebsiella pneumoniae [29] = assay: Antibacterial activity against Klebsiella pneumoniae assessed as percent susceptible isolates by CLSI M7-A7 method
Citrobacter freundii [30] = assay: Antibacterial activity against Citrobacter freundii assessed as percent susceptible isolates by CLSI M7-A7 method
Pseudomonas aeruginosa [31] = assay: Antibacterial activity against ciprofloxacin-susceptible Pseudomonas aeruginosa by CLSI M7-A7 method
Acinetobacter baumannii [32] = assay: Antibacterial activity against Acinetobacter baumannii by CLSI M7-A7 method
Proteus mirabilis [33] = assay: Antibacterial activity against Proteus mirabilis by CLSI M7-A7 method
Pseudomonas aeruginosa [34] = assay: Antibacterial activity against non-ciprofloxacin-susceptible Pseudomonas aeruginosa assessed as percent susceptible isolates by CLSI M7-A7 method

## CC(C)(O/N=C(\C(=O)N[C@@H]1C(=O)N2C(C(=O)[O-])=C(C[n+]3ccccc3)CS[C@H]12)c1csc(N)n1)C(=O)O [CEFTAZIDIME]
Serratia marcescens [1]
  MIC50: 0.06 µg/mL (≈ 0.11 µM)
  MIC90: 0.5 µg/mL (≈ 0.915 µM)
[2]
  MIC: 0.5 µg/mL (≈ 0.915 µM)
Acinetobacter lwoffii [3]
  Activity: 76%
[4]
  Activity: 63%
Pseudomonas aeruginosa [5]
  Activity: 93.3%
Klebsiella aerogenes [6]
  MIC50: 2 µg/mL (≈ 3.66 µM)
  MIC90: > 16 µg/mL
Enterobacter cloacae [7]
  Activity: 70%
Morganella morganii [8]
  MIC50: 0.12 µg/mL (≈ 0.22 µM)
  MIC90: 16 µg/mL (≈ 29.3 µM)
Citrobacter freundii [9]
  MIC50: 0.25 µg/mL (≈ 0.457 µM)
  MIC90: > 16 µg/mL
Acinetobacter baumannii [10]
  Activity: 39.6%
[11]
  MIC: 0.5 µg/mL (≈ 0.915 µM)
Proteus vulgaris [12]
  MIC50: 0.06 µg/mL (≈ 0.11 µM)
  MIC90: 0.12 µg/mL (≈ 0.22 µM)
Klebsiella oxytoca [13]
  MIC50: 0.12 µg/mL (≈ 0.22 µM)
  MIC90: 0.5 µg/mL (≈ 0.915 µM)
Pseudomonas aeruginosa [14]
  MIC50: 4 µg/mL (≈ 7.32 µM)
  MIC90: > 16 µg/mL
Klebsiella oxytoca [15]
  Activity: 100%
Morganella morganii [16]
  Activity: 82.4%
Serratia marcescens [17]
  Activity: 93%
Citrobacter koseri [18]
  Activity: 100%
Enterobacter cloacae [19]
  MIC50: 0.5 µg/mL (≈ 0.915 µM)
  MIC90: > 16 µg/mL
Acinetobacter lwoffii [20]
  MIC50: 2 µg/mL (≈ 3.66 µM)
  MIC90: > 16 µg/mL
Citrobacter koseri [21]
  MIC50: 0.12 µg/mL (≈ 0.22 µM)
  MIC90: 0.5 µg/mL (≈ 0.915 µM)
Klebsiella aerogenes [22]
  Activity: 62%
Klebsiella pneumoniae [23]
  MIC50: 0.12 µg/mL (≈ 0.22 µM)
  MIC90: 1 µg/mL (≈ 1.83 µM)
[24]
  MIC50: 4 µg/mL (≈ 7.32 µM)
  MIC90: > 16 µg/mL
Proteus mirabilis [25]
  Activity: 98%
[26]
  Activity: 32.7%
Proteus vulgaris [27]
  Activity: 100%
[28]
  Activity: 43.8%
Klebsiella pneumoniae [29]
  Activity: 92%
Citrobacter freundii [30]
  Activity: 78%
Pseudomonas aeruginosa [31]
  MIC50: 2 µg/mL (≈ 3.66 µM)
  MIC90: 8 µg/mL (≈ 14.6 µM)
Acinetobacter baumannii [32]
  MIC50: > 16 µg/mL
  MIC90: > 16 µg/mL
Proteus mirabilis [33]
  MIC: ≤ 0.03 µg/mL
  MIC50: ≤ 0.03 µg/mL
  MIC90: 0.06 µg/mL (≈ 0.11 µM)
Pseudomonas aeruginosa [34]
  Activity: 57.3%
